Measured values reported in patent publication US12037344B2, “NLRP3 modulators” (INNATE TUMOR IMMUNITY, INC., priority 2018, dated 2024).

Assays:
[1] = tested on: THP-1 cells; assay: Measurement of IL-1β production, hTRF protocol (second alternative procedure), THP-1 cells; assay type: cell-based, human; settings: Homo sapiens, THP-1, IL-1β production, human; read-out: NLRP3 hILIB EC50
Summary of the method: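 THP-1 cells differentiated overnight with 50 ng/ml PMA, then plated at 50,000 cells/well in RPMI with 2% FBS onto serial compound dilutions (top final concentration 10 μM) for 2 hours at 37° C. Supernatant IL-1β measured by hTRF (antibodies at 1:40, overnight at 4° C), read at 665/615 nm against a standard curve.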

[2] = molecular target: T1, TLR8 (Homo sapiens, UniProt Q9NR97); assay: In vitro human TLR8 binding reporter assay (HEK-Blue, NF-kB/AP1-inducible SEAP); assay type: cell-based; settings: activity range class, read-out: TLR8 Agonist EC50
T1 construct: human HEK-Blue cells co-expressing a TLR7 or TLR8 gene
T1 sequence (Q9NR97 27-1041): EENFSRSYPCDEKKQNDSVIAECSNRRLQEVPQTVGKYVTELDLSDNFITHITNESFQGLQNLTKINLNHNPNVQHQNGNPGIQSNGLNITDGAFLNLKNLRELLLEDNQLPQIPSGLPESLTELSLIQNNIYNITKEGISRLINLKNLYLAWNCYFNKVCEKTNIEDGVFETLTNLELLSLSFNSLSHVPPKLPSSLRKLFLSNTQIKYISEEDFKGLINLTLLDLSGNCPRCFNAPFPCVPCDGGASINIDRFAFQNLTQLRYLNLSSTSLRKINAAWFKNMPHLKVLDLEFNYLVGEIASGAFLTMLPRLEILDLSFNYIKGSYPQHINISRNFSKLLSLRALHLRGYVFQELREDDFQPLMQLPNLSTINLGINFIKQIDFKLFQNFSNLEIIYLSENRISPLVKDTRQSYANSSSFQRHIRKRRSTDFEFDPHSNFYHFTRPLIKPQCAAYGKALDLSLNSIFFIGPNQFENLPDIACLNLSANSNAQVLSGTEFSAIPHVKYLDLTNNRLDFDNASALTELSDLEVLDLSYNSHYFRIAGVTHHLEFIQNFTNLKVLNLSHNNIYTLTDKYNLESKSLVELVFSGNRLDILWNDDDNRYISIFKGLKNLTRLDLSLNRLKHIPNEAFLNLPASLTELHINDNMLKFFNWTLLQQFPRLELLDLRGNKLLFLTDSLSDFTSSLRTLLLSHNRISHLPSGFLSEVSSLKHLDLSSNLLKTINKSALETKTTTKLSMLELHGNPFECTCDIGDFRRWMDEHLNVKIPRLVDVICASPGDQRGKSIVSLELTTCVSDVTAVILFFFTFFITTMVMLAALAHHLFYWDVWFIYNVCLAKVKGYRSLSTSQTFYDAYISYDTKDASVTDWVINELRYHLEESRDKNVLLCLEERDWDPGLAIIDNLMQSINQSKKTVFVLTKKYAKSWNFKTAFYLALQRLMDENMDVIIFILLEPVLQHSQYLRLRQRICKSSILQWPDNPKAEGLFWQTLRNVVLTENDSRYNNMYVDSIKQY
Summary of the method: (§1)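 HEK-Blue cells expressing human TLR7 or TLR8 with NF-kB/AP1-inducible SEAP reporter, plated 24 h, then compound-treated 18 h at 37° C, 5% CO2. EC50 normalized to 100% Ymax set by 50 μM reference standard.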

[3] = molecular target: T2, TLR7 (Homo sapiens, UniProt Q9NYK1); assay: In vitro human TLR7 binding reporter assay (HEK-Blue, NF-kB/AP1-inducible SEAP); assay type: cell-based; settings: activity range class, read-out: TLR7 Agonist EC50
T2 construct: human HEK-Blue cells co-expressing a TLR7 or TLR8 gene
T2 sequence (Q9NYK1 27-1049): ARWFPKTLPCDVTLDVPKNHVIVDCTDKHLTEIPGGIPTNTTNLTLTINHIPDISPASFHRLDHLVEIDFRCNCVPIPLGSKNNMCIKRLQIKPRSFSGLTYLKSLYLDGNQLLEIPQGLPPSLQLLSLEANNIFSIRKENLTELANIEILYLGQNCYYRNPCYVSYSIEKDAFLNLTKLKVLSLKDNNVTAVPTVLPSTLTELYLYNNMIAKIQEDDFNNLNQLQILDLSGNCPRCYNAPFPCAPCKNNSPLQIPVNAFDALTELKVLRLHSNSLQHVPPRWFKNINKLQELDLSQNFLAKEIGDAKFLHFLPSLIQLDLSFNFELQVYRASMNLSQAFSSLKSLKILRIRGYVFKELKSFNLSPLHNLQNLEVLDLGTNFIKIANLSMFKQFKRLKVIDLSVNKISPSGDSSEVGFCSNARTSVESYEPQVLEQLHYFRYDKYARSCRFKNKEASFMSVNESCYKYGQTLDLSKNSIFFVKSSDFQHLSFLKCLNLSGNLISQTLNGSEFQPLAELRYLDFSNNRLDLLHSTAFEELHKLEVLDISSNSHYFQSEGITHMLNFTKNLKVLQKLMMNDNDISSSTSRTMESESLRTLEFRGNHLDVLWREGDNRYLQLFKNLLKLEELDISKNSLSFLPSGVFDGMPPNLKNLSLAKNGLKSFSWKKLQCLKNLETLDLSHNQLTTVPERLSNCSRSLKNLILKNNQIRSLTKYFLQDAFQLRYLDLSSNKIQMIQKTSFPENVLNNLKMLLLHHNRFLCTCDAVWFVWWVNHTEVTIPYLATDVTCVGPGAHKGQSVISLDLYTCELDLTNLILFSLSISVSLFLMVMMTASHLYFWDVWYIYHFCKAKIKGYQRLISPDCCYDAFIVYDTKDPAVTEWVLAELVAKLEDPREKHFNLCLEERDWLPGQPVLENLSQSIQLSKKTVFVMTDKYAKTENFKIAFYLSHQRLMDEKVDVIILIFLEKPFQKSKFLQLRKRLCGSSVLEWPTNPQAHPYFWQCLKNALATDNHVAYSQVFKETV
Summary of the method: as §1

Compound | EC50 [1] | EC50 [2] | EC50 [3]
COc1ccc(CC(=O)NCCn2cc3c(n2)c(N)nc2cc(-c4cc[nH]n4)ccc23)cc1 [Example 32] | 14.7 µM | > 100 µM | 1 to 20 µM
CC(=O)NCCn1cc2c(n1)c(N)nc1cc(-c3cc[nH]n3)ccc12 [Example 33] | 11.8 µM | > 100 µM | > 100 µM
CC(C)C(=O)NCCn1cc2c(n1)c(N)nc1cc(-c3cc[nH]n3)ccc12 [Example 34] | 8.85 µM | > 100 µM | 20 to 100 µM
Nc1nc2cc(-c3cc[nH]n3)ccc2c2cn(CCNC(=O)CO)nc12 [Example 35] | 20.7 µM | > 100 µM | 20 to 100 µM
Nc1nc2cc(-c3cc[nH]n3)ccc2c2cn(CCNC(=O)c3ccccc3)nc12 [Example 36] | 1.38 µM | > 100 µM | 20 to 100 µM
Nc1nc2cc(-c3cc[nH]n3)ccc2c2cn(CCNC(=O)c3ccncc3)nc12 [Example 37] | 0.95 µM | > 100 µM | > 100 µM
Nc1nc2cc(-c3cc[nH]n3)ccc2c2cn(CCNC(=O)c3cccnc3)nc12 [Example 38] | 4.93 µM | > 100 µM | > 100 µM
COc1ccc(C(=O)NCCn2cc3c(n2)c(N)nc2cc(-c4cc[nH]n4)ccc23)cc1 [Example 40] | 0.78 µM | > 100 µM | > 100 µM
Cc1ccc(C(=O)NCCn2cc3c(n2)c(N)nc2cc(-c4cc[nH]n4)ccc23)cc1 [Example 41] | 0.8 µM | > 100 µM | > 100 µM
Nc1nc2cc(-c3cc[nH]n3)ccc2c2cn(CCNC(=O)c3ccc(F)cc3)nc12 [Example 42] | 0.67 µM | > 100 µM | > 100 µM
Nc1nc2cc(-c3cc[nH]n3)ccc2c2cn(CCNC(=O)c3cocn3)nc12 [Example 44] | 0.63 µM | > 100 µM | > 100 µM
Cc1cc(C(=O)NCCn2cc3c(n2)c(N)nc2cc(-c4cc[nH]n4)ccc23)nn1C [Example 45] | 1.41 µM | > 100 µM | > 100 µM
Cc1nc(C)c(C(=O)NCCn2cc3c(n2)c(N)nc2cc(-c4cc[nH]n4)ccc23)o1 [Example 46] | 4.19 µM | > 100 µM | > 100 µM
Nc1nc2cc(-c3cc[nH]n3)ccc2c2cn(CCNC(=O)C3CCOCC3)nc12 [Example 47] | 23.3 µM | > 100 µM | > 100 µM
CCC(=O)NCCn1cc2c(n1)c(N)nc1cc(-c3cc[nH]n3)ccc12 [Example 48] | 5.2 µM | > 100 µM | > 100 µM
Cc1cccc(C(=O)NCCn2cc3c(n2)c(N)nc2cc(-c4cc[nH]n4)ccc23)n1 [Example 49] | 0.61 µM | 20 to 100 µM | > 100 µM
Cc1nccc(C(=O)NCCn2cc3c(n2)c(N)nc2cc(-c4cc[nH]n4)ccc23)n1 [Example 50] | 1.43 µM | > 100 µM | > 100 µM
COc1ccc(C(=O)NCCn2cc3c(n2)c(N)nc2cc(-c4cc[nH]n4)ccc23)nn1 [Example 51] | 18.8 µM | > 100 µM | > 100 µM
Cc1cnc(C(=O)NCCn2cc3c(n2)c(N)nc2cc(-c4cc[nH]n4)ccc23)cn1 [Example 52] | 0.62 µM | > 100 µM | > 100 µM
Nc1nc2cc(-c3cc[nH]n3)ccc2c2cn(CCNC(=O)c3cc(CO)ccn3)nc12 [Example 57] | 2.21 µM | > 100 µM | > 100 µM
COC(=O)c1cccc(C(=O)NCCn2cc3c(n2)c(N)nc2cc(-c4cc[nH]n4)ccc23)n1 [Example 63] | 1.61 µM | > 100 µM | > 100 µM
N#Cc1ccc(C(=O)NCCn2cc3c(n2)c(N)nc2cc(-c4cc[nH]n4)ccc23)nc1 [Example 64] | 0.48 µM | > 100 µM | > 100 µM
Nc1nc2cc(-c3cc[nH]n3)ccc2c2cn(CCNC(=O)c3ncc(F)cc3F)nc12 [Example 66] | 0.8 µM | > 100 µM | > 100 µM

Continued by falling EC50 [1], values first:

EC50 [1] | EC50 [2] | EC50 [3] | Compound
0.47 µM | > 100 µM | > 100 µM | COc1ccc(C(=O)NCCn2cc3c(n2)c(N)nc2cc(-c4cc[nH]n4)ccc23)nc1 [Example 59]
0.46 µM | > 100 µM | > 100 µM | Cc1nc(C(=O)NCCn2cc3c(n2)c(N)nc2cc(-c4cc[nH]n4)ccc23)cs1 [Example 43]
0.45 µM | > 100 µM | > 100 µM | Nc1nc2cc(-c3cc[nH]n3)ccc2c2cn(CCNC(=O)c3ncccc3F)nc12 [Example 53]
0.39 µM | 20 to 100 µM | 20 to 100 µM | Nc1nc2cc(-c3cc[nH]n3)ccc2c2cn(CCNC(=O)c3cccc(F)n3)nc12 [Example 55]
0.35 µM | 20 to 100 µM | > 100 µM | COc1cccc(C(=O)NCCn2cc3c(n2)c(N)nc2cc(-c4cc[nH]n4)ccc23)n1 [Example 65]
0.31 µM | 1 to 20 µM | 20 to 100 µM | Cc1nc(C(=O)NCCn2cc3c(n2)c(N)nc2cc(-c4cc[nH]n4)ccc23)ccc1C(F)(F)F [Example 56]
0.3 µM | 1 to 20 µM | > 100 µM | Nc1nc2cc(-c3cc[nH]n3)ccc2c2cn(CCNC(=O)c3ccc(OCc4ccccc4)cn3)nc12 [Example 58]
0.28 µM | > 100 µM | 20 to 100 µM | Nc1nc2cc(-c3cc[nH]n3)ccc2c2cn(CCNC(=O)c3ccc(C(F)(F)F)cn3)nc12 [Example 62]
0.27 µM | > 100 µM | > 100 µM | Nc1nc2cc(-c3cc[nH]n3)ccc2c2cn(CCNC(=O)c3cccc(Cl)n3)nc12 [Example 60]
0.25 µM | 20 to 100 µM | > 100 µM | Nc1nc2cc(-c3cc[nH]n3)ccc2c2cn(CCNC(=O)c3ccccn3)nc12 [Example 39]
0.19 µM | > 100 µM | 20 to 100 µM | Nc1nc2cc(-c3cc[nH]n3)ccc2c2cn(CCNC(=O)c3cc(F)ccn3)nc12 [Example 54]
0.15 µM | 1 to 20 µM | 20 to 100 µM | Nc1nc2cc(-c3cc[nH]n3)ccc2c2cn(CCNC(=O)c3ccc(F)cn3)nc12 [Example 31, N-{2-[4-amino-7-(1H-pyrazol-3-yl)-2H-pyrazolo[3,4-c]quinolin-2-yl]ethyl}-5-fluoropyridine-2-carboxamide]
0.12 µM | > 100 µM | 20 to 100 µM | Nc1nc2cc(-c3cc[nH]n3)ccc2c2cn(CCNC(=O)c3cc(Cl)ccn3)nc12 [Example 61]
